According to EPA's ToxValDB 9.5:

Test system: Rattus norvegicus
[1] = reproduction developmental, duration: 70 days, oral, gavage, M, Crl:CD(SD), generation: P0, P0: Whole Body: Terminal Body Weight, Absolute
[2] = reproduction developmental, duration: 84 days, oral, gavage, M, Crl:CD(SD), generation: P0, P0: Seminal Vesicle: Seminal Vesicle Weight, Absolute + P0: Seminal Vesicle: Seminal Vesicle Weight, Relative + P0: Whole Body: Clinical …
[3] = reproduction developmental, duration: 84 days, oral, gavage, M, Crl:CD(SD), generation: P0, P0: Whole Body: Body Weight Change + P0: Whole Body: Terminal Body Weight, Absolute
[4] = reproduction developmental, duration: 131 days, oral, gavage, F, Crl:CD(SD), generation: P0, P0: Uterus: Uterus Weight, Absolute + P0: Uterus: Uterus Weight, Relative + P0: Whole Body: Clinical Observations
[5] = reproduction developmental, duration: 131 days, oral, gavage, F, Crl:CD(SD), generation: P0, P0: Whole Body: Body Weight Change + P0: Whole Body: Body Weight, Absolute + P0: Whole Body: Mortality
[6] = reproduction developmental, duration: 131 days, oral, gavage, M/F, Crl:CD(SD), generation: F1, F1: Kidney: Kidney Abnormalities + F1: Whole Body: Clinical Observations + F1: Whole Body: Dams with Liveborn Pups + F1: Whole Body: …
[7] = reproduction developmental, duration: 131 days, oral, gavage, M/F, Crl:CD(SD), generation: F1, F1: Whole Body: Pup Weight Relative to Litter
[8] = reproduction developmental, oral, gavage, F, Sprague-Dawley, generation: P0, P0: Developmental: Uterus: Implantation + P0: Developmental: Whole Body: No. Male Pups per No. of Pups Sexed + P0: Endocrine: Pituitary: …
[9] = reproduction developmental, oral, gavage, F, Sprague-Dawley, generation: P0, P0: Developmental: Uterus: Implantation + P0: Developmental: Whole Body: No. Male Pups per No. of Pups Sexed + P0: General Toxicity: Whole …
[10] = reproduction developmental, oral, gavage, M/F, Crl:CD(SD), generation: P0, P0: Reproductive: Whole Body: Gestation Index
[11] = reproduction developmental, oral, gavage, M, Crl:CD(SD), generation: P0, P0: General Toxicity: Whole Body: Necropsy Appeared Normal + P0: Nervous: CNS: Latency to Mount
[12] = reproduction developmental, oral, gavage, M, Sprague-Dawley, generation: P0, P0: General Toxicity: Whole Body: Body Weight Change + P0: General Toxicity: Whole Body: Clinical Observations + P0: General Toxicity: Whole…
[13] = short-term, duration: 28 days, oral, gavage, F, Crl:CD(SD), Liver: Liver Weight, Relative + Liver: Liver, Enlarged + Teeth: Incisors, Discolored
[14] = short-term, duration: 28 days, oral, gavage, F, Crl:CD(SD), Whole Body: Dystocia
[15] = short-term, duration: 28 days, oral, gavage, M/F, Crl:CD(SD), Adrenal: Adrenal Cortex Histopathology + Blood: Chloride (CL), Blood + Blood: Globulin (G), Blood + Blood: Potassium (K), Blood + Blood: …
[16] = short-term, duration: 28 days, oral, gavage, M/F, Crl:CD(SD), Whole Body: Body Weight Change + Whole Body: Body Weight, Absolute
[17] = short-term, duration: 28 days, oral, gavage, M, Crl:CD(SD), Teeth: Incisors, Discolored + Teeth: Teeth, Mottled

OCCC(F)(F)C(F)(F)C(F)(F)C(F)(F)C(F)(F)C(F)(F)F [2-(Perfluorohexyl)ethanol]
LEL [1]: 250 mg/kg-day | NEL [1]: 125 mg/kg-day | NEL (reproduction developmental, duration: 84 days, oral, gavage, M, Crl:CD(SD), generation: P0, P0: Epididymis: Epididymis Histopathology + P0: Epididymis: Epididymis Weight, Absolute + P0: Epididymis: Epididymis Weight, Relative + P0: …): 250 mg/kg-day | LEL [2]: 125 mg/kg-day | NEL [2]: 25 mg/kg-day | LEL [3]: 250 mg/kg-day | NEL [3]: 125 mg/kg-day | NEL (reproduction developmental, duration: 131 days, oral, gavage, F, Crl:CD(SD), generation: P0, P0: Bladder: Urinary Bladder Histopathology + P0: Kidney: Kidney Histopathology + P0: Lung: Lung Histopathology + P0: Ovary: Ovary …): 250 mg/kg-day | LEL [4]: 125 mg/kg-day | NEL [4]: 25 mg/kg-day | LEL [5]: 250 mg/kg-day | NEL [5]: 125 mg/kg-day | LEL [6]: 250 mg/kg-day | NEL [6]: 125 mg/kg-day | NEL (reproduction developmental, duration: 131 days, oral, gavage, M/F, Crl:CD(SD), generation: F1, F1: Whole Body: Dams with Stillborn Pups + F1: Whole Body: Live Pups Born + F1: Whole Body: Surviving Pups Per Litter): 250 mg/kg-day | LEL [7]: 125 mg/kg-day | NEL [7]: 25 mg/kg-day | LOAEL [8]: 125 mg/kg-day | NOAEL [8]: 25 mg/kg-day | LOAEL [9]: 125 mg/kg-day | NOAEL [9]: 25 mg/kg-day | NOAEL (reproduction developmental, oral, gavage, F, Sprague-Dawley, generation: P0, P0: Endocrine: Pituitary: Pituitary Gland Histopathology + P0: Endocrine: Pituitary: Pituitary Gland Weight, Absolute + P0: Endocrine: …): 250 mg/kg-day | LOAEL [10]: 125 mg/kg-day | NOAEL [10]: 25 mg/kg-day | LOAEL [11]: 225 mg/kg-day | NOAEL [11]: 75 mg/kg-day | NOAEL (reproduction developmental, oral, gavage, M, Crl:CD(SD), generation: P0, P0: Nervous: CNS: Latency to Mount): 225 mg/kg-day | LOAEL (reproduction developmental, oral, gavage, M, Sprague-Dawley, generation: P0, P0: Endocrine: Pituitary: Pituitary Gland Histopathology + P0: Endocrine: Pituitary: Pituitary Gland Weight, Absolute + P0: Endocrine: …): 125 mg/kg-day | LOAEL [12]: 125 mg/kg-day | NOAEL [12]: 25 mg/kg-day | NEL (short-term, duration: 4 weeks, inhalation, F, Crl:CD(SD), Adrenal: Adrenal Gland Weight, Absolute + Adrenal: Adrenal Gland Weight, Absolute, Recovery + Adrenal: Adrenal Gland Weight, Relative + …): 1490 mg/m3 | LEL (short-term, duration: 4 weeks, inhalation, F, Crl:CD(SD), Blood: Hematocrit (HCT) + Blood: Hemoglobin (HGB) + Blood: Red Blood Cell (RBC) + Bone: Decalcification, Trabeculae (4 wk) + Bone: …): 1490 mg/m3 | NEL (short-term, duration: 4 weeks, inhalation, F, Crl:CD(SD), Blood: Hematocrit (HCT) + Blood: Hemoglobin (HGB) + Blood: Red Blood Cell (RBC) + Liver: Alanine Aminotransferase (ALT), Blood + Liver: …): 149 mg/m3 | NEL (short-term, duration: 4 weeks, inhalation, M, Crl:CD(SD), Adrenal: Adrenal Gland Weight, Absolute + Adrenal: Adrenal Gland Weight, Absolute, Recovery + Adrenal: Adrenal Gland Weight, Relative + …): 1490 mg/m3 | LEL (short-term, duration: 4 weeks, inhalation, M, Crl:CD(SD), Bone: Decalcification, Trabeculae (4 wk) + Bone: Decalcification, Trabeculae (8 wk) + Kidney: Total Protein (TP), Urine + Liver: Albumin (A…): 1490 mg/m3 | NEL (short-term, duration: 4 weeks, inhalation, M, Crl:CD(SD), Kidney: Total Protein (TP), Urine + Liver: Albumin (A), Blood + Liver: Liver Weight, Absolute + Liver: Liver Weight, Relative + Liver: Liver…): 149 mg/m3 | LEL [13]: 25 mg/kg-day | NEL [13]: 5 mg/kg-day | NEL (short-term, duration: 28 days, oral, gavage, F, Crl:CD(SD), Teeth: Teeth, Mottled): 125 mg/kg-day | LEL [14]: 225 mg/kg-day | NEL [14]: 75 mg/kg-day | LEL [15]: 225 mg/kg-day | NEL [15]: 75 mg/kg-day | LEL [16]: 75 mg/kg-day | NEL [16]: 25 mg/kg-day | NEL (short-term, duration: 28 days, oral, gavage, M, Crl:CD(SD), Liver: Liver Weight, Relative + Liver: Liver, Enlarged): 125 mg/kg-day | LEL [17]: 25 mg/kg-day | NEL [17]: 5 mg/kg-day
